Measured values published in PubChem BioAssay (NCI).
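Assay format: 96-well plates, 48-hour exposure. TGI: total growth inhibition.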

How the values were obtained:
Test in all cases: NCI anticancer screen, dose series, 48 h
[1] = test system: SW-620 colon
[2] = test system: 786-0 renal
[3] = test system: ACHN renal
[4] = test system: OVCAR-3 ovarian
[5] = test system: NCI-H522 lung
[6] = test system: HL-60(TB) leukemia
[7] = test system: UO-31 renal
[8] = test system: M14 melanoma
[9] = test system: MDA-N
[10] = test system: MDA-MB-231 breast
[11] = test system: A498 renal
[12] = test system: COLO 205 colon
[13] = test system: HS 578T breast
[14] = test system: MDA-MB-435
[15] = test system: SK-MEL-28 melanoma
[16] = test system: DU-145 prostate
[17] = test system: RXF 393 renal
[18] = test system: NCI-H226 lung
[19] = test system: TK-10 renal
[20] = test system: HOP-62 NSCLC
[21] = test system: K-562 leukemia
[22] = test system: SN12C renal
[23] = test system: HCC-2998 colon
[24] = test system: SNB-19 CNS
[25] = test system: BT-549 breast
[26] = test system: HCT-116 colon
[27] = test system: UACC-62 melanoma
[28] = test system: RPMI-8226 leukemia
[29] = test system: CAKI-1 renal
[30] = test system: OVCAR-8 ovarian
[31] = test system: LOX IMVI melanoma
[32] = test system: SF-295 CNS
[33] = test system: U251 CNS
[34] = test system: CCRF-CEM leukemia
[35] = test system: MCF7 breast
[36] = test system: A549 NSCLC
[37] = test system: OVCAR-4 ovarian
[38] = test system: SK-OV-3 ovarian
[39] = test system: NCI-H23 lung
[40] = test system: SK-MEL-2 melanoma
[41] = test system: KM12 colon
[42] = test system: UACC-257 melanoma
[43] = test system: MALME-3M melanoma
[44] = test system: IGROV1 ovarian
[45] = test system: NCI-H460 lung
[46] = test system: SF-268 CNS
[47] = test system: HCT-15 colon
[48] = test system: SK-MEL-5 melanoma
[49] = test system: SR leukemia
[50] = test system: T-47D breast
[51] = test system: PC-3 prostate
[52] = test system: OVCAR-5 ovarian
[53] = test system: EKVX NSCLC
[54] = test system: HT29 colon
[55] = test system: SNB-75 CNS
[56] = test system: NCI/ADR-RES ovarian
[57] = test system: HOP-92 NSCLC
[58] = test system: MOLT-4 leukemia
[59] = test system: SF-539 CNS

For `CN(C)CCCn1cnc2cc(Cl)c(Cl)cc21`, the TGI [1] was > 100 µM, the TGI [2] was > 100 µM and the TGI [3] was > 100 µM. The TGI [4] was > 100 µM, the TGI [5] was > 100 µM and the TGI [6] was > 100 µM. For the same compound, the TGI [7] was > 100 µM, the TGI [8] was 36.1 µM and the TGI [9] was > 100 µM. The TGI [10] was > 100 µM, the TGI [11] was > 100 µM and the TGI [12] was > 100 µM. For the same compound, the TGI [13] was > 100 µM, the TGI [14] was > 100 µM and the TGI [15] was 41.8 µM. The TGI [16] was > 100 µM, the TGI [17] was > 100 µM and the TGI [18] was > 100 µM. The TGI [19] was > 100 µM, the TGI [20] was > 100 µM and the TGI [21] was > 100 µM. For the same compound, the TGI [22] was > 100 µM, the TGI [23] was 40.6 µM and the TGI [24] was > 100 µM. The TGI [25] was > 100 µM, the TGI [26] was > 100 µM and the TGI [27] was 82.2 µM. The TGI [28] was > 100 µM, the TGI [29] was > 100 µM and the TGI [30] was > 100 µM. The TGI [31] was > 100 µM, the TGI [32] was > 100 µM and the TGI [33] was > 100 µM. The TGI [34] was > 100 µM, the TGI [35] was > 100 µM and the TGI [36] was > 100 µM. The TGI [37] was > 100 µM, the TGI [38] was > 100 µM and the TGI [39] was > 100 µM. The TGI [40] was > 100 µM, the TGI [41] was > 100 µM and the TGI [42] was 40.7 µM. For the same compound, the TGI [43] was > 100 µM, the TGI [44] was > 100 µM and the TGI [45] was > 100 µM. For the same compound, the TGI [46] was > 100 µM, the TGI [47] was > 100 µM and the TGI [48] was > 100 µM. The TGI [49] was > 100 µM, the TGI [50] was > 100 µM and the TGI [51] was > 100 µM. The TGI [52] was > 100 µM, the TGI [53] was > 100 µM and the TGI [54] was > 100 µM. For the same compound, the TGI [55] was 98.9 µM and the TGI [56] was > 100 µM.
`Cc1cc2cc3c(=O)[nH]c(=O)[nH]c3nc2cc1C` was tested, and the TGI [1] was > 100 µM, the TGI [2] was > 100 µM and the TGI [57] was > 100 µM. For the same compound, the TGI [3] was > 100 µM, the TGI [4] was > 100 µM and the TGI [5] was > 100 µM. For the same compound, the TGI [6] was > 100 µM, the TGI [7] was > 100 µM and the TGI [8] was > 100 µM. For the same compound, the TGI [9] was > 100 µM, the TGI [10] was > 100 µM and the TGI [11] was > 100 µM. The TGI [12] was > 100 µM, the TGI [13] was > 100 µM and the TGI [14] was > 100 µM. The TGI [15] was > 100 µM, the TGI [16] was > 100 µM and the TGI [17] was > 100 µM. The TGI [18] was > 100 µM, the TGI [19] was > 100 µM and the TGI [20] was > 100 µM. For the same compound, the TGI [21] was > 100 µM, the TGI [22] was > 100 µM and the TGI [58] was > 100 µM. For the same compound, the TGI [24] was > 100 µM, the TGI [25] was > 100 µM and the TGI [26] was > 100 µM. The TGI [27] was > 100 µM, the TGI [28] was > 100 µM and the TGI [29] was > 100 µM. The TGI [30] was > 100 µM, the TGI [31] was > 100 µM and the TGI [32] was > 100 µM. The TGI [33] was > 100 µM, the TGI [35] was > 100 µM and the TGI [36] was > 100 µM. The TGI [37] was > 100 µM, the TGI [38] was > 100 µM and the TGI [39] was > 100 µM. The TGI [40] was > 100 µM, the TGI [41] was > 100 µM and the TGI [42] was > 100 µM. The TGI [43] was > 100 µM, the TGI [44] was > 100 µM and the TGI [45] was > 100 µM. For the same compound, the TGI [46] was > 100 µM, the TGI [47] was > 100 µM and the TGI [48] was > 100 µM. The TGI [49] was > 100 µM, the TGI [50] was > 100 µM and the TGI [51] was > 100 µM. The TGI [52] was > 100 µM, the TGI [53] was > 100 µM and the TGI [54] was > 100 µM. The TGI [55] was 90 µM, the TGI [56] was > 100 µM and the TGI [59] was > 100 µM.
